Results reported in PubChem BioAssay AID2060902 (Molecular Pharmacology Branch, DTP, NCI, 2025).

Tested on: 485368-065-R3-J5-PDC spheroids with HUVEC/MSC, viability
Assay: Anticancer human tumor 485368-065-R3-J5-PDC patient-derived pancreatic carcinoma cell line growth inhibition [RAS]
Details: for IC50: curve of first compound; for viability, T/C: stronger effect = lower value
How it was run: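 Tumour cells grown as complex spheroids with HUVEC endothelial cells and mesenchymal stem cells, treated with RAS pathway inhibitor combinations. Each agent spans half-log steps from near clinical Cmax, or 10 microM where Cmax is unknown.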

[1] = second compound 0.00316 µM, first compound 0.0316 µM
[2] = second compound 0.00316 µM, first compound 0.1 µM
[3] = second compound 0.00316 µM, first compound 0.316 µM
[4] = second compound 0.00316 µM, first compound 1 µM
[5] = second compound 0.00316 µM, first compound 3.16 µM
[6] = second compound 0.00316 µM, first compound 10 µM
[7] = second compound 0.01 µM, first compound 0.0316 µM
[8] = second compound 0.01 µM, first compound 0.1 µM
[9] = second compound 0.01 µM, first compound 0.316 µM
[10] = second compound 0.01 µM, first compound 1 µM
[11] = second compound 0.01 µM, first compound 3.16 µM
[12] = second compound 0.01 µM, first compound 10 µM
[13] = second compound 0.0316 µM, first compound 0.0316 µM
[14] = second compound 0.0316 µM, first compound 0.1 µM
[15] = second compound 0.0316 µM, first compound 0.316 µM
[16] = second compound 0.0316 µM, first compound 1 µM
[17] = second compound 0.0316 µM, first compound 3.16 µM
[18] = second compound 0.0316 µM, first compound 10 µM
[19] = second compound 0.1 µM, first compound 0.0316 µM
[20] = second compound 0.1 µM, first compound 0.1 µM
[21] = second compound 0.1 µM, first compound 0.316 µM
[22] = second compound 0.1 µM, first compound 1 µM
[23] = second compound 0.1 µM, first compound 3.16 µM
[24] = second compound 0.1 µM, first compound 10 µM
[25] = second compound 0.316 µM, first compound 0.0316 µM
[26] = second compound 0.316 µM, first compound 0.1 µM
[27] = second compound 0.316 µM, first compound 0.316 µM
[28] = second compound 0.316 µM, first compound 1 µM
[29] = second compound 0.316 µM, first compound 3.16 µM
[30] = second compound 0.316 µM, first compound 10 µM
[31] = second compound 1 µM, first compound 0.0316 µM
[32] = second compound 1 µM, first compound 0.1 µM
[33] = second compound 1 µM, first compound 0.316 µM
[34] = second compound 1 µM, first compound 1 µM
[35] = second compound 1 µM, first compound 3.16 µM
[36] = second compound 1 µM, first compound 10 µM
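Further: spheroids exposed to agents for seven days before readout.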

CC(=O)OC12COC1CC(O)C1(C)C(=O)C(O)C3=C(C)C(OC(=O)C(O)C(NC(=O)OC(C)(C)C)c4ccccc4)CC(O)(C(OC(=O)c4ccccc4)C21)C3(C)C (stereo not given) + C=CC(=O)N1CCN(c2nc(OCC3CCCN3C)nc3c(F)c(-c4nc(N)cc(C)c4C(F)(F)F)c(Cl)cc23)C(C)C1
IC50 (second compound 0.00316 µM): < 31.6 nM
IC50 (second compound 0.01 µM): < 31.6 nM
IC50 (second compound 0.0316 µM): < 31.6 nM
IC50 (second compound 0.1 µM): < 31.6 nM
IC50 (second compound 0.316 µM): < 31.6 nM
IC50 (second compound 1 µM): < 31.6 nM
viability, T/C [1]: 14.1%
viability, T/C [2]: 12.1%
viability, T/C [3]: 13.5%
viability, T/C [4]: 12.9%
viability, T/C [5]: 13.9%
viability, T/C [6]: 18.2%
viability, T/C [7]: 11.4%
viability, T/C [8]: 10.3%
viability, T/C [9]: 11.2%
viability, T/C [10]: 11.9%
viability, T/C [11]: 11.9%
viability, T/C [12]: 21.3%
viability, T/C [13]: 13.2%
viability, T/C [14]: 9.68%
viability, T/C [15]: 12.2%
viability, T/C [16]: 16%
viability, T/C [17]: 16.2%
viability, T/C [18]: 19.9%
viability, T/C [19]: 10.6%
viability, T/C [20]: 10.8%
viability, T/C [21]: 13.7%
viability, T/C [22]: 10%
viability, T/C [23]: 17.6%
viability, T/C [24]: 20.2%
viability, T/C [25]: 9.72%
viability, T/C [26]: 13.7%
viability, T/C [27]: 11.7%
viability, T/C [28]: 13%
viability, T/C [29]: 22.9%
viability, T/C [30]: 28.2%
viability, T/C [31]: 12.8%
viability, T/C [32]: 15.1%
viability, T/C [33]: 16.3%
viability, T/C [34]: 12.6%
viability, T/C [35]: 17.3%
viability, T/C [36]: 23.5%

CCC(CC)c1cc(NC2CCC(N)C2)n2nccc2n1 (stereo not given) + C=CC(=O)N1CCN(c2nc(OCC3CCCN3C)nc3c(F)c(-c4nc(N)cc(C)c4C(F)(F)F)c(Cl)cc23)C(C)C1
IC50 (second compound 0.00316 µM): 1950 nM
IC50 (second compound 0.01 µM): 1990 nM
IC50 (second compound 0.0316 µM): 1950 nM
IC50 (second compound 0.1 µM): 1970 nM
IC50 (second compound 0.316 µM): 1940 nM
IC50 (second compound 1 µM): 1980 nM
viability, T/C [1]: 107%
viability, T/C [2]: 93%
viability, T/C [3]: 114%
viability, T/C [4]: 133%
viability, T/C [5]: 3.52%
viability, T/C [6]: 6.56%
viability, T/C [7]: 118%
viability, T/C [8]: 108%
viability, T/C [9]: 109%
viability, T/C [10]: 136%
viability, T/C [11]: 3.73%
viability, T/C [12]: 5.65%
viability, T/C [13]: 101%
viability, T/C [14]: 109%
viability, T/C [15]: 112%
viability, T/C [16]: 134%
viability, T/C [17]: 3.48%
viability, T/C [18]: 4.43%
viability, T/C [19]: 93.7%
viability, T/C [20]: 104%
viability, T/C [21]: 117%
viability, T/C [22]: 143%
viability, T/C [23]: 3.81%
viability, T/C [24]: 6.8%
viability, T/C [25]: 94.8%
viability, T/C [26]: 108%
viability, T/C [27]: 106%
viability, T/C [28]: 132%
viability, T/C [29]: 3.87%
viability, T/C [30]: 7.93%
viability, T/C [31]: 97.5%
viability, T/C [32]: 92.3%
viability, T/C [33]: 120%
viability, T/C [34]: 133%
viability, T/C [35]: 5.49%
viability, T/C [36]: 10.8%

Cc1nc(N2CCC3(CC2)COC(C)C3N)c(CO)nc1Sc1ccnc(N)c1Cl (stereo not given) + C=CC(=O)N1CCN(c2nc(OCC3CCCN3C)nc3c(F)c(-c4nc(N)cc(C)c4C(F)(F)F)c(Cl)cc23)C(C)C1
IC50 (second compound 0.00316 µM): 7820 nM
IC50 (second compound 0.01 µM): 7830 nM
IC50 (second compound 0.0316 µM): > 10000 nM
IC50 (second compound 0.1 µM): > 10000 nM
IC50 (second compound 0.316 µM): > 10000 nM
IC50 (second compound 1 µM): > 10000 nM
viability, T/C [1]: 101%
viability, T/C [2]: 84.3%
viability, T/C [3]: 83.6%
viability, T/C [4]: 68.2%
viability, T/C [5]: 57.7%
viability, T/C [6]: 47.6%
viability, T/C [7]: 91.7%
viability, T/C [8]: 89.4%
viability, T/C [9]: 85.1%
viability, T/C [10]: 72.8%
viability, T/C [11]: 64.6%
viability, T/C [12]: 45.9%
viability, T/C [13]: 97.4%
viability, T/C [14]: 93.1%
viability, T/C [15]: 66.8%
viability, T/C [16]: 61.5%
viability, T/C [17]: 63.1%
viability, T/C [18]: 61.7%
viability, T/C [19]: 86.4%
viability, T/C [20]: 81.7%
viability, T/C [21]: 75.6%
viability, T/C [22]: 75.6%
viability, T/C [23]: 70.7%
viability, T/C [24]: 53.1%
viability, T/C [25]: 98.5%
viability, T/C [26]: 89.7%
viability, T/C [27]: 79.9%
viability, T/C [28]: 77%
viability, T/C [29]: 65.5%
viability, T/C [30]: 51.2%
viability, T/C [31]: 97.3%
viability, T/C [32]: 95.8%
viability, T/C [33]: 80.3%
viability, T/C [34]: 73.1%
viability, T/C [35]: 58.7%
viability, T/C [36]: 50.1%

NC1c2ccccc2OC12CCN(c1cnc3c(N4CCCc5ncccc54)n[nH]c3n1)CC2 (stereo not given) + C=CC(=O)N1CCN(c2nc(OCC3CCCN3C)nc3c(F)c(-c4nc(N)cc(C)c4C(F)(F)F)c(Cl)cc23)C(C)C1
IC50 (second compound 0.00316 µM): > 10000 nM
IC50 (second compound 0.01 µM): > 10000 nM
IC50 (second compound 0.0316 µM): > 10000 nM
IC50 (second compound 0.1 µM): > 10000 nM
IC50 (second compound 0.316 µM): > 10000 nM
IC50 (second compound 1 µM): > 10000 nM
viability, T/C [1]: 83.2%
viability, T/C [2]: 60.2%
viability, T/C [3]: 78.5%
viability, T/C [4]: 72.2%
viability, T/C [5]: 67%
viability, T/C [6]: 69.8%
viability, T/C [7]: 87.7%
viability, T/C [8]: 76.8%
viability, T/C [9]: 67.5%
viability, T/C [10]: 64.4%
viability, T/C [11]: 77%
viability, T/C [12]: 65.7%
viability, T/C [13]: 81.2%
viability, T/C [14]: 88.2%
viability, T/C [15]: 64.1%
viability, T/C [16]: 67.4%
viability, T/C [17]: 72.5%
viability, T/C [18]: 69.8%
viability, T/C [19]: 82.4%
viability, T/C [20]: 75.8%
viability, T/C [21]: 61.1%
viability, T/C [22]: 74.9%
viability, T/C [23]: 78%
viability, T/C [24]: 74.6%
viability, T/C [25]: 72.1%
viability, T/C [26]: 79.2%
viability, T/C [27]: 75.1%
viability, T/C [28]: 64.1%
viability, T/C [29]: 73.1%
viability, T/C [30]: 60.4%
viability, T/C [31]: 84.7%
viability, T/C [32]: 77.5%
viability, T/C [33]: 72.9%
viability, T/C [34]: 60.6%
viability, T/C [35]: 60.7%
viability, T/C [36]: 54.9%

Nc1ccn(C2OC(CO)C(O)C2(F)F)c(=O)n1 (stereo not given) + C=CC(=O)N1CCN(c2nc(OCC3CCCN3C)nc3c(F)c(-c4nc(N)cc(C)c4C(F)(F)F)c(Cl)cc23)C(C)C1
IC50 (second compound 0.00316 µM): 6.42 nM
IC50 (second compound 0.01 µM): 6.43 nM
IC50 (second compound 0.0316 µM): 6.5 nM
IC50 (second compound 0.1 µM): 6.18 nM
IC50 (second compound 0.316 µM): 6.26 nM
IC50 (second compound 1 µM): 6.1 nM
viability, T/C (second compound 0.00316 µM, first compound 0.00316 µM): 107%
viability, T/C (second compound 0.00316 µM, first compound 0.01 µM): 14.7%
viability, T/C [1]: 10.7%
viability, T/C [2]: 9.52%
viability, T/C [3]: 8.08%
viability, T/C [4]: 10.4%
viability, T/C (second compound 0.01 µM, first compound 0.00316 µM): 104%
viability, T/C (second compound 0.01 µM, first compound 0.01 µM): 16.8%
viability, T/C [7]: 9.83%
viability, T/C [8]: 7.76%
viability, T/C [9]: 10.4%
viability, T/C [10]: 9.94%
viability, T/C (second compound 0.0316 µM, first compound 0.00316 µM): 103%
viability, T/C (second compound 0.0316 µM, first compound 0.01 µM): 18.4%
viability, T/C [13]: 12.1%
viability, T/C [14]: 9.22%
viability, T/C [15]: 9.83%
viability, T/C [16]: 10.7%
viability, T/C (second compound 0.1 µM, first compound 0.00316 µM): 97%
viability, T/C (second compound 0.1 µM, first compound 0.01 µM): 16.3%
viability, T/C [19]: 9.86%
viability, T/C [20]: 7.88%
viability, T/C [21]: 9.19%
viability, T/C [22]: 9.27%
viability, T/C (second compound 0.316 µM, first compound 0.00316 µM): 101%
viability, T/C (second compound 0.316 µM, first compound 0.01 µM): 15.3%
viability, T/C [25]: 8.44%
viability, T/C [26]: 8.63%
viability, T/C [27]: 9.97%
viability, T/C [28]: 11%
viability, T/C (second compound 1 µM, first compound 0.00316 µM): 89.7%
viability, T/C (second compound 1 µM, first compound 0.01 µM): 20.2%
viability, T/C [31]: 11.6%
viability, T/C [32]: 9.69%
viability, T/C [33]: 11.4%
viability, T/C [34]: 11.8%
